This passage reports EC50, IC50 and inhibition results from US10934297B2, “5-heteroaryl substituted indazole-3-carboxamides and preparation and use thereof” (Samumed, LLC, priority 2018, dated 2021).

The subject of assay [1] is Wnt activity (Sp5-Luc reporter in SW480 cells). The experiment in a line: Screening assay for Wnt activity: Sp5-Luc reporter gene assay in SW480 colon carcinoma cells. It counts as cell-based, human. The note with it: Homo sapiens, 36 to 48 hours. Put shortly:
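EC50 values come from a variable-slope four-parameter fit of luminescence normalized to DMSO-only wells. The read-out follows 36–48 h incubation at 37 °C, 5% CO2, in DMEM containing 1% fetal bovine serum. Cells are hygromycin-selected SW480 stably expressing firefly luciferase under a Wnt-responsive Sp5 promoter (eight TCF/LEF sites).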

The target in the next assay is DYRK1A kinase (Homo sapiens (Human), UniProt Q13627). Put plainly: DYRK1A kinase assay (Ser/Thr 18 peptide Z-lyte FRET). It counts as biochemical. Particulars: read-out: EC50 (method: IC50). The gist of the method:
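Kinase reactions with compound ran 1 h at room temperature in duplicate, and development reagent was then added for another hour.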

For a further assay, the target named is GSK3β kinase (Homo sapiens (Human), UniProt P49841). The experiment in a line: GSK3β kinase assay (Ser/Thr 09 peptide Z-lyte FRET). It counts as biochemical. Particulars: read-out: EC50 (method: IC50). The gist of the method: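 Non-radioactive Z-lyte FRET read-out, kinase activity expressed as coumarin/fluorescein emission ratio. Compounds incubated with the reaction mixture one hour at room temperature in duplicate, then development buffer added for another hour. IC50 from non-linear regression of dose-response curves.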

Assay [2] deals with SW480 colon carcinoma cells. The experiment in a line: Cell viability assay (CellTiter-Glo) in SW480 colon carcinoma cells. It counts as cell-based, human. The note with it: Homo sapiens, 96 h, four days. Put shortly: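 Viability was taken from CellTiter-Glo ATP luminescence, read about 12 min after reagent addition, relative to DMSO controls. The cells were Sp5-Luc reporter SW480 colon carcinoma cells, 2,000/well in 1% FBS DMEM, exposed to compound for four days at 37 °C.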
A general note: Cellular ATP, detected with luciferase, serves as a proxy for viable cell number.

The subject of assay [3] is primary human fibroblasts derived from IPF patients (LL29 cells). Put plainly: Inhibition of the fibrotic process: αSMA staining in TGF-β1 treated LL29 fibroblasts. Particulars: Homo sapiens, Fibroblast, 96 h; LL29 cells, TGF-β1 20 ng/mL, 4 days, % αSMA positive cells. It counts as cell-based. The gist of the method:
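LL29 fibroblasts from IPF patients, in F12 medium with 1% FBS, treated with TGF-β1 plus compound; TGF-β1 with DMSO as positive control, DMSO alone as negative control. After 4 days' incubation, SYTOX green nucleic acid stain added at 1 μM final, 30 min at room temperature.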

For the next assay, the system named is IL-6. Put plainly: IL-6 inhibition in LPS-stimulated human peripheral blood mononuclear cells (HTRF). The note with it: Homo sapiens, PBMC; for EC50: huPBMCs, LPS 50 ng/mL, 22 hours, IL-6 HTRF; for inhibition at 10 µM: read-out: percent inhibition at 10 μM. It counts as cell-based. The gist of the method:
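HTRF 665/620 nm ratio, read after 3 h antibody incubation at room temperature, quantified IL-6 released by fresh human PBMCs (1×10e6 cells/mL, 1% FBS-RPMI). The cells got compound, then 50 ng/mL LPS at 2 h, followed by a further 22 h at 37° C. EC50 came from DMSO-normalized readings run in duplicate.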

GSK3β kinase, sequence (P49841 whole entry): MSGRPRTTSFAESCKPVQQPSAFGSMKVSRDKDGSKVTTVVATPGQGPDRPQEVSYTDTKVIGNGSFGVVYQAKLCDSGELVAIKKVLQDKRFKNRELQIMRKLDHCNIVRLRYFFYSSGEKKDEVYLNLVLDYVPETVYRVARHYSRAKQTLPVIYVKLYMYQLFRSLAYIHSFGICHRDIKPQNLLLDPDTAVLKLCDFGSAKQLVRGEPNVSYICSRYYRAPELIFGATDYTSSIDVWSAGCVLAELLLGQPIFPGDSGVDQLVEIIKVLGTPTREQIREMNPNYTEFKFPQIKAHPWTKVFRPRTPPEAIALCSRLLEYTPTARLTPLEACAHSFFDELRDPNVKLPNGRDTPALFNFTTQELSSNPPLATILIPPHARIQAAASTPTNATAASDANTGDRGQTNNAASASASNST

Regarding `O=C(Nc1ccc(F)cc1)c1n[nH]c2ccc(-c3cnn(C4CCNCC4)c3)cc12` [Compound 48, N-(4-Fluorophenyl)-5-(1-(piperidin-4-yl)-1H-pyrazol-4-yl)-1H-indazole-3-carboxamide], the EC50 in assay [1] is 239 nM; in assay [2], 354 nM; in assay [3], 449 nM; in the assay on IL-6, 5420 nM. For the same molecule, the values for the IC50 at DYRK1A kinase and on GSK3β kinase were 23 nM and 260 nM, respectively.

With `O=C(Nc1ccc(F)cc1)c1n[nH]c2cc(F)c(-c3cnn(C4CCNCC4)c3)cc12` [Compound 49, 6-Fluoro-N-(4-fluorophenyl)-5-(1-(piperidin-4-yl)-1H-pyrazol-4-yl)-1H-indazole-3-carboxamide], the EC50 was 256 nM in assay [1], 208 nM in assay [2], 1010 nM in assay [3] and 3730 nM with IL-6. The IC50 at DYRK1A kinase was determined as 15 nM; at GSK3β kinase, 187 nM.

With `O=C(Nc1ccc(Cl)cc1)c1n[nH]c2cc(F)c(-c3cnn(C4CCNCC4)c3)cc12` [Compound 50, N-(4-Chlorophenyl)-6-fluoro-5-(1-(piperidin-4-yl)-1H-pyrazol-4-yl)-1H-indazole-3-carboxamide], the concentration giving a half-maximal response (EC50) in assay [1] stood at 1190 nM; in assay [2], 648 nM; in assay [3], 1110 nM; in the assay with IL-6, 6050 nM. Also, the results for the IC50 at DYRK1A kinase and at GSK3β kinase were 34 nM and 476 nM, respectively.

Take `CN1CCC(n2cc(-c3cc4c(C(=O)Nc5ccc(F)cc5)n[nH]c4cc3F)cn2)CC1` [Compound 51, 6-Fluoro-N-(4-fluorophenyl)-5-(1-(1-methylpiperidin-4-yl)-1H-pyrazol-4-yl)-1H-indazole-3-carboxamide]: the EC50 in assay [1] is 560 nM; in assay [2], 305 nM; in assay [3], 816 nM; in the assay with IL-6 it was 2560 nM. Also, the IC50 at DYRK1A kinase was determined as 16 nM; on GSK3β kinase it was 558 nM.

Turning to `O=C(Nc1ccc(OC(F)F)cc1)c1n[nH]c2ccc(-c3cnn(C4CNC4)c3)cc12` [Compound 54, 5-(1-(Azetidin-3-yl)-1H-pyrazol-4-yl)-N-(4-(difluoromethoxy)phenyl)-1H-indazole-3-carboxamide], the EC50 was 4380 nM in assay [1], over 10000 nM in assay [2], 2920 nM in assay [3] and over 10000 nM with IL-6. Moreover, the figures for the IC50 at DYRK1A kinase and on GSK3β kinase were 244 nM and 2080 nM, respectively. Also, in the assay on IL-6, the inhibition at 10 µM stood at 9.7%.

As for `O=C(Nc1ccc(OC(F)F)cc1)c1n[nH]c2ccc(-c3cnn(C4CCNCC4)c3)cc12` [Compound 55, N-(4-(Difluoromethoxy)phenyl)-5-(1-(piperidin-4-yl)-1H-pyrazol-4-yl)-1H-indazole-3-carboxamide], the EC50 worked out at 428 nM in assay [1], 1340 nM in assay [2], 236 nM in assay [3] and 3850 nM in the assay on IL-6. Further, the IC50 on DYRK1A kinase stood at 37 nM; on GSK3β kinase, 1230 nM.

Consider `O=C(Nc1ccc(OC(F)F)cc1)c1n[nH]c2cc(F)c(-c3cnn(C4CCNCC4)c3)cc12` [Compound 56, N-(4-(Difluoromethoxy)phenyl)-6-fluoro-5-(1-(piperidin-4-yl)-1H-pyrazol-4-yl)-1H-indazole-3-carboxamide], for which the EC50 worked out at 376 nM in assay [1], 201 nM in assay [2], 1530 nM in assay [3] and 2150 nM in the assay with IL-6. Besides, the IC50 at DYRK1A kinase was 27 nM; at GSK3β kinase, 330 nM.

Regarding `CN1CCC(n2cc(-c3cc4c(C(=O)Nc5ccc(OC(F)F)cc5)n[nH]c4cc3F)cn2)CC1` [Compound 59, N-(4-(Difluoromethoxy)phenyl)-6-fluoro-5-(1-(1-methylpiperidin-4-yl)-1H-pyrazol-4-yl)-1H-indazole-3-carboxamide], the EC50 is 555 nM in assay [1], 327 nM in assay [2], 2540 nM in assay [3] and 2590 nM with IL-6. The IC50 on DYRK1A kinase was found to be 28 nM; at GSK3β kinase it was 1290 nM.

As to `O=C(Nc1ccc(OC(F)F)cc1)c1n[nH]c2ccc(-c3cnn(C4CCN(CCF)CC4)c3)cc12` [Compound 60, N-(4-(Difluoromethoxy)phenyl)-5-(1-(1-(2-fluoroethyl)piperidin-4-yl)-1H-pyrazol-4-yl)-1H-indazole-3-carboxamide], the EC50 in assay [1] stood at 3850 nM; in assay [2], 3730 nM; in assay [3], 1280 nM; with IL-6, 8980 nM. In addition, the IC50 on DYRK1A kinase was 1500 nM; at GSK3β kinase, over 10000 nM.

On to `O=C(Nc1ccc(OC(F)F)cc1)c1n[nH]c2ccc(-c3cnn(CC4CCNCC4)c3)cc12` [Compound 63, N-(4-(Difluoromethoxy)phenyl)-5-(1-(piperidin-4-ylmethyl)-1H-pyrazol-4-yl)-1H-indazole-3-carboxamide], for which the EC50 was 9440 nM in assay [1], 768 nM in assay [2], 2030 nM in assay [3] and over 10000 nM in the assay on IL-6. The IC50 was found to be 767 nM at DYRK1A kinase and 2320 nM at GSK3β kinase. Moreover, the inhibition at 10 µM in the assay on IL-6 was 6.2%.

As for `CN1CCC(c2ccc(NC(=O)c3n[nH]c4cc(F)c(-c5cnn(C)c5)cc34)cc2)CC1` [Compound 65, 6-Fluoro-5-(1-methyl-1H-pyrazol-4-yl)-N-(4-(1-methylpiperidin-4-yl)phenyl)-1H-indazole-3-carboxamide], the EC50 in assay [1] stood at 805 nM; in assay [2], 1100 nM; in assay [3], 620 nM; with IL-6, 3180 nM. The IC50 came to 4 nM on DYRK1A kinase and 44 nM on GSK3β kinase.

On to `CN1CCN(c2ccc(NC(=O)c3n[nH]c4cc(F)c(-c5cnn(C)c5)cc34)cc2)CC1` [Compound 66, 6-Fluoro-5-(1-methyl-1H-pyrazol-4-yl)-N-(4-(4-methylpiperazin-1-yl)phenyl)-1H-indazole-3-carboxamide], for which the EC50 is 953 nM in assay [1], 759 nM in assay [2], 650 nM in assay [3] and 1280 nM in the assay on IL-6. Moreover, the IC50 on DYRK1A kinase stood at 2 nM; at GSK3β kinase, 65 nM.

For the molecule `Cn1cc(-c2ccc3[nH]nc(C(=O)Nc4ccc(CN5CCCC5)cc4)c3c2)cn1` [Compound 68, 5-(1-Methyl-1H-pyrazol-4-yl)-N-(4-(pyrrolidin-1-ylmethyl)phenyl)-1H-indazole-3-carboxamide], the EC50 in assay [1] was 264 nM; in assay [2] it was 360 nM; in assay [3], 74 nM; in the assay with IL-6, over 10000 nM. Moreover, the IC50 on DYRK1A kinase was determined as 1 nM; at GSK3β kinase, 6 nM.

`Cn1cc(-c2cc3c(C(=O)Nc4ccc(CN5CCCC5)cc4)n[nH]c3cc2F)cn1` [Compound 69, 6-Fluoro-5-(1-methyl-1H-pyrazol-4-yl)-N-(4-(pyrrolidin-1-ylmethyl)phenyl)-1H-indazole-3-carboxamide]: the EC50 stood at 308 nM in assay [1], 191 nM in assay [2], 328 nM in assay [3] and 1320 nM with IL-6. Further, the IC50 on DYRK1A kinase was determined as 2 nM; at GSK3β kinase, 20 nM.

As to `CCn1cc(-c2ccc3[nH]nc(C(=O)Nc4ccc(CN5CCCC5)cc4)c3c2)cn1` [Compound 70, 5-(1-Ethyl-1H-pyrazol-4-yl)-N-(4-(pyrrolidin-1-ylmethyl)phenyl)-1H-indazole-3-carboxamide], the EC50 was 512 nM in assay [1], 518 nM in assay [2], 126 nM in assay [3] and 1380 nM with IL-6. For the same molecule, the IC50 on DYRK1A kinase is 5 nM; on GSK3β kinase, 25 nM.

With `CC(C)n1cc(-c2ccc3[nH]nc(C(=O)Nc4ccc(CN5CCCC5)cc4)c3c2)cn1` [Compound 71, 5-(1-Isopropyl-1H-pyrazol-4-yl)-N-(4-(pyrrolidin-1-ylmethyl)phenyl)-1H-indazole-3-carboxamide], the EC50 in assay [1] was 1490 nM; in assay [2] it was 1100 nM; in assay [3] it was 322 nM; in the assay with IL-6, 4800 nM. The IC50 came to 25 nM at DYRK1A kinase and 169 nM on GSK3β kinase.

In the case of `O=C(Nc1ccc(CN2CCCC2)cc1)c1n[nH]c2ccc(-c3cnn(C4CC4)c3)cc12` [Compound 72, 5-(1-Cyclopropyl-1H-pyrazol-4-yl)-N-(4-(pyrrolidin-1-ylmethyl)phenyl)-1H-indazole-3-carboxamide], the EC50 in assay [1] was 545 nM; in assay [2], 228 nM; in assay [3] it was 242 nM; in the assay with IL-6 it was 1200 nM. Further, the half-inhibitory concentration (IC50) was found to be 6 nM at DYRK1A kinase and 40 nM on GSK3β kinase.

The term EC50 denotes the midpoint of the concentration-response curve. As usually defined, the IC50 is the midpoint of a concentration-inhibition curve. The term inhibition denotes the percentage by which the read-out fell short of the control.
